The conditions of data set [1]: up to maximum bolus tested, 200 microliters every 6 hours (8 mL/kg per bolus; 32 mL/kg/day). The procedure:
In a separate experiment using the above conditions the tolerance of bolus injection of 100% oxygen gas was tested.

The subject of data set [2] is Clostridioides difficile ATCC 43255. The note with it: for cure rate: mouse CDI model, 14 days follow-up; for survival: treatment study day 0 to 4, followed for 14 days after inoculum, 10 mice per group.
From the text: Because of the more humanlike characteristics for mouse CDI model, it was chosen to evaluate enteric aerobization.
Administration of enteric aerobization therapies presented several challenges with the mouse model. Administration of experimental compounds in rodents is normally performed via gastric gavage using a solution of the test article. However, this could not be accomplished with enteric aerobization therapy because dissolving the mixture prior to administration would result in premature loss of oxygen effervescence before entering the intestine. Further, there is uncertainty that rodents reliably pass enteric coated capsules or tablets from the stomach to the intestine. […] Finally, the small capsule or tablet sizes required for rodent administration severely limits dosages.
Thirty C57BL/6 female mice (18-22 g) fitted with duodenal catheters externalized and fitted with access button ports were purchased from Charles River Laboratories and singly housed in a temperature and humidity-controlled room with a 12-hour light cycle. The mice were divided into 3 groups of 10.
The mice were pretreated with an antibiotic cocktail in their drinking water for 8 consecutive days. This antibiotic cocktail was composed of 1% glucose, 500 mcg/mL kanamycin, 44 mcg/mL gentamicin, 1062.5 units per milliliter colistin, 269 mcg/mL metronidazole, 156 mcg/mL ciprofloxacin, 100 mcg/mL ampicillin, and 56 mcg/mL vancomycin. The antibiotic cocktail and drinking water were replaced every 2 to 3 days. Five days prior to infection the antibiotic water was removed and normal drinking water was provided to the animals. Three days prior to infection the animals received a single dose of clindamycin 10 mg per kilogram via oral administration in a volume of 10 mL per kilogram.
On study Day 0 mice were inoculated with the bacterial suspension of 5×10^5 CFU Clostridioides difficile ATCC 43255 via oral gavage. Eight hours after inoculation administration of vehicle, antibiotic control, and test article was initiated according to the following. The vehicle a.k.a. infection control group of 10 mice received 80 μL per hour 100% pure nitrogen gas via duodenal catheter. The infection control group of 10 mice received 50 mg/kg vancomycin via oral gavage once daily. […] Administration was continued from study day 0 to study day 4, a total of 5 days. The mice were followed for 14 days after inoculum recording daily weights and clinical observations. Animals that appeared severely moribund were euthanized. At the end of the study all animals were humanely euthanized.

Take `O=O` [EAT, oxygen]: the “adverse effects of bolus injection” value in data set [1] was “No adverse effects were observed”. Further, the “clinical severity (total clinical score) compared to infection control group” value in data set [2] (FIG. 9) is listed as “mildly ill”. Further, the “animals showing clinical signs of infection/recurrence in the 2nd week after inoculation, after treatment” value in data set [2] (days 8-14) is listed as “no recurrent infections”. The “adverse effects due to gas infusion” value in data set [2] (efficacy experiments, 3.2 mL/kg/hr, 76.8 mL/kg/day) was “no adverse effects”. Also, in data set [2], the cure rate is reported as 100% and the survival turned out to be 100%.
In data set [2], `CN[C@H](CC(C)C)C(=O)N[C@H]1C(=O)N[C@@H](CC(N)=O)C(=O)N[C@H]2C(=O)N[C@H]3C(=O)N[C@H](C(=O)N[C@H](C(=O)O)c4cc(O)cc(O)c4-c4cc3ccc4O)[C@H](O)c3ccc(c(Cl)c3)Oc3cc2cc(c3O[C@@H]2O[C@H](CO)[C@@H](O)[C@H](O)[C@H]2O[C@H]2C[C@](C)(N)[C@H](O)[C@H](C)O2)Oc2ccc(cc2Cl)[C@H]1O` [vancomycin, reference compound] gave a cure rate of 30% and a survival of 100%.

The values above are taken from US12274726B2, “Enteric aerobization therapy” (LPOXY THERAPEUTICS, INC., priority 2021, dated 2025).
